In ChEMBL document CHEMBL5244269, “Improving metabolic stability and removing aldehyde oxidase liability in a 5-azaquinazoline series of IRAK4 inhibitors” (Bioorg Med Chem, 2020):

Experiments:
Format in all cases: functional
[1] = system: SUD4; test: Growth inhibition of human SU-DHL-4 cells at 0.17 uM incubated for 3 days (reference value: 2%); details: SU-DHL-4, 72 h, time 3 day, read-out: GI
[2] = system: OCI-Ly10; test: Growth inhibition of human OCILY10 cells at 0.003 uM incubated for 3 days (Rvb= -3%); details: OCI-Ly10, 72 h, time 3 day, read-out: GI
[3] = system: SUD4; test: Growth inhibition of human SU-DHL-4 cells at 0.033 uM incubated for 3 days (reference value: 2%); details: SU-DHL-4, 72 h, time 3 day, read-out: GI
[4] = system: SUD4; test: Growth inhibition of human SU-DHL-4 cells at 0.017 uM incubated for 3 days (reference value: 2%); details: SU-DHL-4, 72 h, time 3 day, read-out: GI
[5] = system: OCI-Ly10; test: Growth inhibition of human OCILY10 cells at 0.33 uM incubated for 3 days (reference value: -2%); details: OCI-Ly10, 72 h, time 3 day, read-out: GI
[6] = system: SUD4; test: Growth inhibition of human SU-DHL-4 cells at 0.003 uM incubated for 3 days (reference value: -1%); details: SU-DHL-4, 72 h, time 3 day, read-out: GI
[7] = system: SUD4; test: Growth inhibition of human SU-DHL-4 cells at 0.017 uM incubated for 3 days (reference value: -1%); details: SU-DHL-4, 72 h, time 3 day, read-out: GI
[8] = system: OCI-Ly10; test: Growth inhibition of human OCILY10 cells at 1.7 uM incubated for 3 days (Rvb= -3%); details: OCI-Ly10, 72 h, time 3 day, read-out: GI
[9] = system: SUD4; test: Growth inhibition of human SU-DHL-4 cells at 0.033 uM incubated for 3 days (reference value: -1%); details: SU-DHL-4, 72 h, time 3 day, read-out: GI
[10] = system: SUD4; test: Growth inhibition of human SU-DHL-4 cells at 0.17 uM incubated for 3 days (reference value: -1%); details: SU-DHL-4, 72 h, time 3 day, read-out: GI
[11] = system: SUD4; test: Growth inhibition of human SU-DHL-4 cells at 0.33 uM incubated for 3 days (reference value: 2%); details: SU-DHL-4, 72 h, time 3 day, read-out: GI
[12] = system: OCI-Ly10; test: Growth inhibition of human OCILY10 cells at 0.033 uM incubated for 3 days (reference value: -2%); details: OCI-Ly10, 72 h, time 3 day, read-out: GI
[13] = system: OCI-Ly10; test: Growth inhibition of human OCILY10 cells at 3.3 uM incubated for 3 days (Rvb= -3%); details: OCI-Ly10, 72 h, time 3 day, read-out: GI
[14] = system: OCI-Ly10; test: Growth inhibition of human OCILY10 cells at 0.017 uM incubated for 3 days (reference value: -2%); details: OCI-Ly10, 72 h, time 3 day, read-out: GI
[15] = system: OCI-Ly10; test: Growth inhibition of human OCILY10 cells at 0.17 uM incubated for 3 days (Rvb= -2%); details: OCI-Ly10, 72 h, time 3 day, read-out: GI
[16] = system: OCI-Ly10; test: Growth inhibition of human OCILY10 cells at 0.017 uM incubated for 3 days (Rvb= -3%); details: OCI-Ly10, 72 h, time 3 day, read-out: GI
[17] = system: OCI-Ly10; test: Growth inhibition of human OCILY10 cells at 0.033 uM incubated for 3 days (Rvb= -3%); details: OCI-Ly10, 72 h, time 3 day, read-out: GI
[18] = system: OCI-Ly10; test: Growth inhibition of human OCILY10 cells at 0.003 uM incubated for 3 days (reference value: -2%); details: OCI-Ly10, 72 h, time 3 day, read-out: GI
[19] = system: SUD4; test: Growth inhibition of human SU-DHL-4 cells at 0.003 uM incubated for 3 days (reference value: 2%); details: SU-DHL-4, 72 h, time 3 day, read-out: GI
[20] = system: SUD4; test: Growth inhibition of human SU-DHL-4 cells at 0.33 uM incubated for 3 days (reference value: -1%); details: SU-DHL-4, 72 h, time 3 day, read-out: GI

CC#CC(=O)N1CCC[C@H]1c1nc(-c2ccc(C(=O)Nc3ccccn3)cc2)c2c(N)nccn12 [ACALABRUTINIB]
inhibition of growth at 0.17 µM [1]: 2%
inhibition of growth at 0.003 µM [2]: 13%
inhibition of growth at 0.033 µM [3]: 2%
inhibition of growth at 0.017 µM [4]: 2%
inhibition of growth at 0.33 µM [5]: 115%
inhibition of growth at 0.003 µM [6]: -1%
inhibition of growth at 0.017 µM [7]: -1%
inhibition of growth at 1.7 µM [8]: 108%
inhibition of growth at 0.033 µM [9]: -3%
inhibition of growth at 0.17 µM [10]: -3%
inhibition of growth at 0.33 µM [11]: 2%
inhibition of growth at 0.033 µM [12]: 92%
inhibition of growth at 3.3 µM [13]: 113%
inhibition of growth at 0.017 µM [14]: 77%
inhibition of growth at 0.17 µM [15]: 111%
inhibition of growth at 0.017 µM [16]: 71%
inhibition of growth at 0.033 µM [17]: 88%
inhibition of growth at 0.003 µM [18]: 16%
inhibition of growth at 0.003 µM [19]: 2%
inhibition of growth at 0.33 µM [20]: -1%
